According to the NIST ThermoML archive (doi:10.1016/j.jct.2005.05.004):

Assays:
[1] = 298.15 K; 101.33 kPa; Liquid; Vibrating tube method
[2] = refractive index (Na D-line) (dimensionless); settings: 298.15 K; 101.33 kPa; Liquid
[3] = xn = mol fraction of the nth substance listed; settings: 298.15 K, 101.32 kPa, Liquid, Vibrating tube method
[4] = refractive index (Na D-line) (dimensionless); xn = mol fraction of the nth substance listed; settings: 298.15 K, 101.32 kPa, Liquid

CCO [ethanol]
Settings	mass density [kg/m3]	refractive index
[1]	785.32	–
[2]	–	1.3592

Cc1ccccc1 [toluene] + CO
Settings	mass density, [3] [kg/m3]	refractive index, [4]
x1 = 0.0491	797.2	1.3464
x1 = 0.1058	806.2	1.366
x1 = 0.199	818.1	1.3921
x1 = 0.3361	831.1	1.4215
x1 = 0.4097	836.6	1.4337
x1 = 0.4501	839.2	1.4402
x1 = 0.5024	842.4	1.4478
x1 = 0.5393	844.4	1.4527
x1 = 0.5818	846.6	1.4579
x1 = 0.6961	851.7	1.47
x1 = 0.7764	854.8	1.4778
x1 = 0.8695	858	1.485
x1 = 0.9416	860.2	1.4904

CCI [iodoethane]
Settings	mass density [kg/m3]	refractive index
[1]	1923.75	–
[2]	–	1.5095

CCI [iodoethane] + Cc1ccccc1
Settings	mass density, [3] [kg/m3]	refractive index, [4]
x2 = 0.1279	1749.5	1.5056
x2 = 0.2014	1655.8	1.5038
x2 = 0.3085	1526.9	1.5012
x2 = 0.3955	1428.3	1.5002
x2 = 0.4476	1371.7	1.499
x2 = 0.4678	1350.2	1.4992
x2 = 0.4961	1320.5	1.4983
x2 = 0.5735	1241.7	1.4974
x2 = 0.6009	1214.7	1.4968
x2 = 0.6974	1122.5	1.4959
x2 = 0.7276	1094.6	1.4957
x2 = 0.7984	1031	1.4948
x2 = 0.8866	954.9	1.4943
x2 = 0.9322	916.9	1.494

CCI [iodoethane] + CO
Settings	mass density, [3] [kg/m3]	refractive index, [4]
x2 = 0.1198	1843.6	1.4964
x2 = 0.1399	1829.8	1.4938
x2 = 0.2068	1783	1.4869
x2 = 0.26	1743.6	1.4787
x2 = 0.4066	1622.2	1.4578
x2 = 0.4234	1606.9	1.4553
x2 = 0.4808	1552.1	1.4451
x2 = 0.4954	1537.5	1.4436
x2 = 0.5699	1458.5	1.4302
x2 = 0.6771	1329.5	1.4084
x2 = 0.7989	1156.8	1.3821
x2 = 0.9094	969.6	1.3534
